From US12295929B2, “Intravenous baclofen formulations and treatment methods” (Allaysis, LLC, priority 2015, dated 2025)

Key:
[1] = cited from earlier work
[2] = Randomized, open-label, 2-way crossover pharmacokinetics and bioavailability study of oral vs intravenous baclofen; format: in vivo, human; conditions: for Cmax: healthy human volunteers; for Cmax / AUC: plasma; for Cmax / AUC0-∞/Dose / AUC: mean ± SD; for AUC: human
Experimental: Twelve healthy human volunteers were recruited. The volunteers were medication free for 48 hours before, during, and 24 hours after the administration of the study drug.
The 12 volunteers participated in a randomized, open-label, 2-way crossover study to compare the pharmacokinetics and bioavailability of oral baclofen with an intravenous baclofen formulation. The oral formulation was a 10 mg baclofen tablet. A single intravenous dose of 5 mg was administered over 15 minutes, using the commercially available 2 mg/mL intrathecal baclofen formulation (Lioresal Intrathecal). Blood samples (6 mL) for the measurement of plasma concentrations of baclofen were collected in blood collection tubes containing K2 ethylenediaminetetraacetic acid at the following times: prior to dosing; at 5, 15, and 30 minutes; and at 1, 2, 4, 6, 8, 10, 12, and 24 hours after drug administration.
Study plasma samples were prepared by adding 50 μL of a 500 μg/mL levetiracetam solution (internal standard) to 250 μL of K2 ethylenediaminetetraacetic acid (EDTA) human plasma. Baclofen and the internal standard were extracted from plasma by precipitating the protein with methanol and drying it under nitrogen at approximately 40° C. The dried residues were reconstituted in 300 μL of a mobile phase consisting of 20 mM ammonium acetate—methanol (75:25) solution. After 1 minute of vortex mixing, the reconstituted sample solution was filtered and injected onto the high-performance liquid chromatograph-mass spectrometer system. Standard curve samples over a range of 20 to 400 ng/mL baclofen and quality control samples containing 30 (low), 80 (medium), and 240 ng/mL (high) baclofen were prepared and analyzed in triplicate along with the study samples. The assay was linear over the range 20-400 ng/mL with a lower limit of quantification of 20 ng/mL.
Baclofen concentration—time data were analyzed using a noncompartmental pharmacokinetic approach with Phoenix software (version 6.2; Pharsight Corporation, Mountain View, CA). The terminal rate constant (λz) was determined from the slope of the terminal log-linear portion of the plasma concentration—time curve, and the terminal half-life (t1/2) was calculated as ln 2/(λz). Maximum plasma concentrations (Cmax) and time to maximum concentration (Tmax) were determined by direct observation of the data. The area under the concentration-time curve to the last nonzero plasma concentration (Clast) that was above half the lower limit of quantification (10 ng/mL) was calculated by the trapezoidal rule and reported as AUClast. The area under the concentration-time curve extrapolated to infinity (AUC0-∞) was calculated as AUClast+(Clast/λz). Mean and standard deviation values for the parameters were also obtained using the descriptive statistics tool in Phoenix version 6.2. A paired t-test was used to determine if statistical differences existed in log normalized, dose-adjusted area under the curve between oral and intravenous arms.

time point of observed maximum baclofen concentration ([2]; 5 mg IV over 15 minutes): 5 min
Cmax ([2]; 5 mg IV over 15 minutes): 313 ng/mL
AUC0-∞/Dose ([2]; 5 mg IV): 141 ± 33 ng·h/mL/mg
Cmax ([2]; 10 mg oral tablet): 176 ng/mL
Tmax ([2]; 10 mg oral tablet, median (min, max)): 1 h
AUC0-∞/Dose ([2]; 10 mg oral): 102 ± 23 ng·h/mL/mg
AUC ([2]; 5 mg IV): 593 ± 111 ng·h/mL
AUC ([2]; 10 mg oral): 878 ± 199 ng·h/mL
Structure (SMILES): NCC(CC(=O)O)c1ccc(Cl)cc1 (racemic) [Baclofen, 4-amino-3-(4-chlorophenyl) butanoic acid]
solubility in water [1]: slightly soluble
